According to PubChem BioAssay AID2060507 (Molecular Pharmacology Branch, DTP, NCI, 2025):

Test system: 519858-162-T-J1-PDC complex spheroid viability
Assay: Anticancer human tumor 519858-162-T-J1-PDC patient-derived colon adenocarcinoma cell line growth inhibition [GQUAD]
Details: for IC50: curve of first compound; for viability, T/C: stronger effect = lower value
Summary of the method: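 Tumor cells were grown as complex spheroids with HUVEC endothelial cells and mesenchymal stem cells as stroma. G-quadruplex stabilizers were combined with targeted agents over half-log dilutions from near the clinical Cmax, or from 10 microM.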
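Note: spheroids exposed to compounds for 7 days.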
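Throughout, for viability, T/C: 100% = DMSO vehicle control viability.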

## C=CC(=O)N1CCN(c2nc(=O)n(-c3c(C)ccnc3C(C)C)c3nc(-c4c(O)cccc4F)c(F)cc23)C(C)C1 (configuration not stated) + Cc1[nH]c2ccc(F)cc2c1-c1nc2c3cccnc3c3ncccc3c2[nH]1
Second compound 0.0316 µM
  IC50: > 10 µM
Second compound 0.1 µM
  IC50: > 10 µM
Second compound 0.316 µM
  IC50: > 10 µM
Second compound 1 µM
  IC50: > 10 µM
Second compound 3.16 µM
  IC50: > 10 µM
Second compound 10 µM
  IC50: < 0.0316 µM
Second compound 0.0316 µM, first compound 0.0316 µM
  viability, T/C: 80.3%
Second compound 0.0316 µM, first compound 0.1 µM
  viability, T/C: 88.6%
Second compound 0.0316 µM, first compound 0.316 µM
  viability, T/C: 65.3%
Second compound 0.0316 µM, first compound 1 µM
  viability, T/C: 81.8%
Second compound 0.0316 µM, first compound 3.16 µM
  viability, T/C: 90.9%
Second compound 0.0316 µM, first compound 10 µM
  viability, T/C: 71.1%
Second compound 0.1 µM, first compound 0.0316 µM
  viability, T/C: 130%
Second compound 0.1 µM, first compound 0.1 µM
  viability, T/C: 96.3%
Second compound 0.1 µM, first compound 0.316 µM
  viability, T/C: 104%
Second compound 0.1 µM, first compound 1 µM
  viability, T/C: 89.7%
Second compound 0.1 µM, first compound 3.16 µM
  viability, T/C: 81.4%
Second compound 0.1 µM, first compound 10 µM
  viability, T/C: 82.2%
Second compound 0.316 µM, first compound 0.0316 µM
  viability, T/C: 76.3%
Second compound 0.316 µM, first compound 0.1 µM
  viability, T/C: 95.4%
Second compound 0.316 µM, first compound 0.316 µM
  viability, T/C: 62.8%
Second compound 0.316 µM, first compound 1 µM
  viability, T/C: 73%
Second compound 0.316 µM, first compound 3.16 µM
  viability, T/C: 74.7%
Second compound 0.316 µM, first compound 10 µM
  viability, T/C: 97.5%
Second compound 1 µM, first compound 0.0316 µM
  viability, T/C: 97.3%
Second compound 1 µM, first compound 0.1 µM
  viability, T/C: 75.4%
Second compound 1 µM, first compound 0.316 µM
  viability, T/C: 94.8%
Second compound 1 µM, first compound 1 µM
  viability, T/C: 85.8%
Second compound 1 µM, first compound 3.16 µM
  viability, T/C: 79.3%
Second compound 1 µM, first compound 10 µM
  viability, T/C: 69.3%
Second compound 3.16 µM, first compound 0.0316 µM
  viability, T/C: 59.6%
Second compound 3.16 µM, first compound 0.1 µM
  viability, T/C: 73.6%
Second compound 3.16 µM, first compound 0.316 µM
  viability, T/C: 79.5%
Second compound 3.16 µM, first compound 1 µM
  viability, T/C: 46.4%
Second compound 3.16 µM, first compound 3.16 µM
  viability, T/C: 72.1%
Second compound 3.16 µM, first compound 10 µM
  viability, T/C: 53.5%
Second compound 10 µM, first compound 0.0316 µM
  viability, T/C: 39.9%
Second compound 10 µM, first compound 0.1 µM
  viability, T/C: 44%
Second compound 10 µM, first compound 0.316 µM
  viability, T/C: 65.6%
Second compound 10 µM, first compound 1 µM
  viability, T/C: 62.8%
Second compound 10 µM, first compound 3.16 µM
  viability, T/C: 52.5%
Second compound 10 µM, first compound 10 µM
  viability, T/C: 80.4%
